Assay results as given in patent publication US20040242591A1, “Oxazolidinone derivatives as pontential antimicrobials” (priority 2001, published 2004).

What was measured:
Strep.pyog. ATCC 19615 = assay: MIC by agar incorporation method, S.pyogenes 19615; type: cell-based, Streptococcus pyogenes; parameters: unit not given here; details: Mueller Hinton agar, 10^4 CFU/spot, 18 hours
Source text: 6) Strep.pyog. ATCC 19615—Streptococcus pyogenes

MRSA 15187 = assay: MIC by agar incorporation method, MRSA 15187; type: cell-based, Methicillin Resistant Staphylococcus aureus; parameters: unit not given here; details: Mueller Hinton agar, 10^4 CFU/spot, 24 hours
Source text: 2) MRSA 15187—Methicillin Resistant Staphylococcus aureus

MRSA 562 = assay: MIC by agar incorporation method, MRSA 562; type: cell-based, Methicillin Resistant Staphylococcus aureus; parameters: unit not given here; details: Mueller Hinton agar, 10^4 CFU/spot, 24 hours
S. pneum AB 34 = assay: MIC by agar incorporation method, S. pneum AB 34; type: cell-based, Streptococcus pneumoniae; parameters: unit not given here; details: Mueller Hinton agar, 10^4 CFU/spot, 18 hours
VRE 6A = assay: MIC by agar incorporation method, VRE 6A; type: cell-based, Enterococcus faecium; parameters: unit not given here; details: Mueller Hinton agar, 10^4 CFU/spot, 18 hours
Source text: 4) Ent. faecium […]—Enterococcus faecium 6A Van®, Cipro®

MRSA 33 = assay: MIC by agar incorporation method, MRSA 33; type: cell-based, Methicillin Resistant Staphylococcus aureus; parameters: unit not given here; details: Mueller Hinton agar, 10^4 CFU/spot, 24 hours
Ent. faecalis ATCC 29212 = assay: MIC by agar incorporation method, E.faecalis 29212; type: cell-based, Enterococcus faecalis; parameters: unit not given here; details: Mueller Hinton agar, 10^4 CFU/spot, 18 hours
Source text: 3) Ent. faecalis ATCC 29212—Enterococcus faecalis ATCC 29212

S.aureus ATCC 25923 = assay: MIC by agar incorporation method, S.aureus 25923; type: cell-based, Staphylococus aureus; parameters: unit not given here; details: Mueller Hinton agar, 10^4 CFU/spot, 18 hours
Strep. pne. ATCC 6303 = assay: MIC by agar incorporation method, S. pneum 6303; type: cell-based, Streptococcus pneumoniae; details: Mueller Hinton agar, 10^4 CFU/spot, 18 hours
Source text: 5) Strep. pne. ATCC 6303—Streptococcus pneumoniae ATCC 6303

Row | Compound | In Vitro (MIC) S.pyogenes 19615 (Strep.pyog. ATCC 19615) | In Vitro (MIC) MRSA 15187 (MRSA 15187) | In Vitro (MIC) MRSA 562 (MRSA 562) | In Vitro (MIC) S. pneum AB 34 (S. pneum AB 34) | In Vitro (MIC) VRE 6A (VRE 6A) | In Vitro (MIC) MRSA 33 (MRSA 33) | In Vitro (MIC) E.faecalis 29212 (Ent. faecalis ATCC 29212) | In Vitro (MIC) S.aureus 25923 (S.aureus ATCC 25923) | In Vitro (MIC) S. pneum 6303 (Strep. pne. ATCC 6303)
1 | CC(=O)NC[C@H]1CN(c2ccc(N3CCN(Cc4cc(Br)c([N+](=O)[O-])o4)CC3)c(F)c2)C(=O)O1 [Compound No. 25, (S)-N-[[3-[3-Fluoro-4[N-1-[4-{2-Furyl-4-bromo-(nitro)methyl}]piperazinyl]-phenyl]-2-oxo-5-oxazolidinyl]methyl]acetamide] | 0.5 | 1 | 2 | 2 | 2 | 2 | 2 | 2 | 2 µg/mL
2 | CC(=O)NC[C@H]1CN(c2ccc(N3CCN(C(=O)c4cc([N+](=O)[O-])[nH]n4)CC3)c(F)c2)C(=O)O1 [Compound No. 31] | 1 | >8 | >8 | 1 | 4 | >8 | 4 | >8 | 1 µg/mL
3 | CC(=O)NC[C@H]1CN(c2ccc(N3CCN(C(=O)c4ccc(-c5ccc(Cl)cc5[N+](=O)[O-])o4)CC3)c(F)c2)C(=O)O1 [Compound No. 35] | 1 | 1 | 1 | 1 | 1 | 1 | 0.5 | 1 | 1 µg/mL
4 | O=C(CF)NC[C@H]1CN(c2ccc(N3CCC(Cc4ccc([N+](=O)[O-])o4)CC3)c(F)c2)C(=O)O1 [Compound No. 42, (S)-N-[[3-[3-Fluoro-4-[N-1-[4-{2-furyl(5-nitro)methyl}]piperinyl]phenyl]-2-oxo-5-oxazolidinyl]methyl]-fluoroacetamide] | 0.5 | 2 | 2 | 2 | 4 | 4 | 4 | 4 | 1 µg/mL
5 | O=C(NC[C@H]1CN(c2ccc(N3CCN(Cc4ccc([N+](=O)[O-])o4)CC3)c(F)c2)C(=O)O1)C(F)F [Compound No. 45, (S)-N-[[3-[3-Fluoro-4-[N-1-[4-{2-furyl(5-nitro)methyl}]piperazinyl]phenyl]-2-oxo-5-oxazolidinyl]methyl]-difluoroacetamide] | 0.5 | 1 | 2 | 2 | 2 | 2 | 2 | 2 | 0.5 µg/mL
6 | O=C(CCl)NC[C@H]1CN(c2ccc(N3CCN(Cc4ccc([N+](=O)[O-])o4)CC3)c(F)c2)C(=O)O1 [Compound No. 46] | 0.5 | 2 | 2 | 1 | 2 | 2 | 2 | 2 | 0.5 µg/mL

Further lines, results first:

Row | In Vitro (MIC) S.pyogenes 19615 (Strep.pyog. ATCC 19615) | In Vitro (MIC) MRSA 15187 (MRSA 15187) | In Vitro (MIC) MRSA 562 (MRSA 562) | In Vitro (MIC) S. pneum AB 34 (S. pneum AB 34) | In Vitro (MIC) VRE 6A (VRE 6A) | In Vitro (MIC) MRSA 33 (MRSA 33) | In Vitro (MIC) E.faecalis 29212 (Ent. faecalis ATCC 29212) | In Vitro (MIC) S.aureus 25923 (S.aureus ATCC 25923) | In Vitro (MIC) S. pneum 6303 (Strep. pne. ATCC 6303) | Compound
7 | 0.5 | 4 | 4 | 1 | 4 | 4 | 4 | 8 | 0.5 µg/mL | CC(=O)NC[C@H]1CN(c2ccc(N3CCN(C(=O)c4ccc(NC(C)=O)s4)CC3)c(F)c2)C(=O)O1 [Compound No. 29, (S)-N-[[3-[3-Fluoro-1-[N-1-[4-{2-thiophenoyl-(5-acetamido)}]piperazinyl]phenyl]-2-oxo-5-oxazolidinyl]methyl]acetamide]
8 | 1 | 8 | 4 | 4 | 4 | 8 | 4 | 8 | 4 µg/mL | CC(=O)NC[C@H]1CN(c2ccc(N3CCN(C(=O)c4ccc(N)s4)CC3)c(F)c2)C(=O)O1 [Compound No. 34, (S)-N-[[3-[3-Fluoro-4-[N-1-[4-{2-thiophenoyl-(5-amino)}]piperazinyl]phenyl]-2-oxo-5-oxazolidinyl]methyl]acetamide]
9 | 1 | 2 | 2 | 1 | 1 | 2 | 2 | 2 | 0.5 µg/mL | CC(=O)NC[C@H]1CN(c2ccc(N3CCN(C(=O)c4occc4C)CC3)c(F)c2)C(=O)O1 [Compound No. 36, (S)-N-[[3-[3-Fluoro-4-[N-1-[4-{2-furoyl-(3-methyl)}]piperazinyl]phenyl]-2-oxo-5-oxazolidinyl]methyl]acetamide]
10 | <0.06 | 0.5 | 0.5 | 0.125 | 0.5 | 0.5 | 0.25 | 0.5 | 0.25 µg/mL | CC(=O)NC[C@H]1CN(c2ccc(N3CCN(C(=O)c4oc([N+](=O)[O-])cc4C)CC3)c(F)c2)C(=O)O1 [Compound No. 37, (S)-N-[[3-[3-Fluoro-4-[N-1-[4-{2-furoyl-(3-methyl-5-nitro)}]piperazinyl]phenyl]-2-oxo-5-oxazolidinyl]methyl]acetamide]
11 | 2 | 4 | 4 | 2 | 4 | 4 | 4 | 8 | 2 µg/mL | CC(=O)NC[C@H]1CN(c2ccc(N3CCN(C(=O)c4cc(N(C)C)c([N+](=O)[O-])s4)CC3)c(F)c2)C(=O)O1 [Compound No. 38]
12 | <0.125 | 0.5 | 0.25 | 4 | <0.125 | 0.25 | 0.5 | 0.5 | 0.5 µg/mL | CC(=O)NC[C@H]1CN(c2ccc(N3CCN(C(=O)c4ccc([N+](=O)[O-])o4)CC3)c(F)c2)C(=O)O1 [Compound No. 39, (S)-N-[[3-[3-Fluoro-4-[N-1-[4-{2-Furoyl-(5-nitro)acylic}]piperazinyl]phenyl]-2-oxo-5-oxazolidinyl]methyl]-acetamide]
13 | 0.5 | 0.25 | 1 | 1 | 0.5 | 0.5 | 1 | 0.5 | 1 µg/mL | CC(=O)NC[C@H]1CN(c2ccc(N3CCN(C(=O)C=Cc4ccc([N+](=O)[O-])s4)CC3)c(F)c2)C(=O)O1 [Compound No. 40, (S)-N-[[3-[3-Fluoro-4-[N-1-[4-{2-thiophenoyl-(5-nitro)acrylic}]piperazinyl]phenyl]-2-oxo-5-oxazolidinyl]methyl]-acetamide]
